Test results as given in US8680159B2, “Bradykinin 1 receptor modulating compounds” (Gruenenthal GmbH, priority 2010, dated 2014).

What was measured:
[1] = molecular target: T1, human B1R receptor (CHO K1 cells stably transfected with the human B1R gene) (Homo sapiens, UniProt P46663); test: Functional study on the bradykinin receptor 1 (B1R), Ca2+ fluorescence (Fluo-4) FLIPR/Novostar assay, hB1R cells; assay type: cell-based; conditions: CHO-K1, read-out: % inhibition (human B1R) at 10 μM
T1 construct: expressed in transfected cells; host or cells: CHO K1 cells (Chinese hamster ovary), stably transfected
T1 sequence (P46663 1-353): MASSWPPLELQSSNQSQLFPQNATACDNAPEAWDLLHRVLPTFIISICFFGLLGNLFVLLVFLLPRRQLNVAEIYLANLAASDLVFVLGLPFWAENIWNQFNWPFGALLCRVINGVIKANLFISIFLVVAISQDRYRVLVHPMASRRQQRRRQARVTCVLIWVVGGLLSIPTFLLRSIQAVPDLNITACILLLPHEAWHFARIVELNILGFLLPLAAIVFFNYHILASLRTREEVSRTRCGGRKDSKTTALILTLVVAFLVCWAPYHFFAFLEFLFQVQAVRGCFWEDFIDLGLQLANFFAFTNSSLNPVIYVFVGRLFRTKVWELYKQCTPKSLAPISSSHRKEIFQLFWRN
Procedure, shortened: (§1)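 Test compounds (10 μM) were added first and the Ca2+ rise was scored as % activation against Lys-Des-Arg9-bradykinin (≥50 nM, human) or Des-Arg9-bradykinin (≥1 μM, rat). After 6-20 min, the matching agonist was given at its EC80, and % inhibition relative to maximal achievable inhibition was calculated.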

[2] = molecular target: T2, B1R receptor of the rat (CHO K1 cells stably transfected with the B1R gene of the rat) (Rattus norvegicus, UniProt P97583); test: Functional study on the bradykinin receptor 1 (B1R), Ca2+ fluorescence (Fluo-4) FLIPR/Novostar assay, rB1R cells; assay type: cell-based; conditions: CHO-K1, 10 μM, read-out: % inhibition (rat B1R) at 10 μM
T2 construct: expressed in transfected cells; host or cells: CHO K1 cells (Chinese hamster ovary), stably transfected
T2 sequence (P97583 1-337): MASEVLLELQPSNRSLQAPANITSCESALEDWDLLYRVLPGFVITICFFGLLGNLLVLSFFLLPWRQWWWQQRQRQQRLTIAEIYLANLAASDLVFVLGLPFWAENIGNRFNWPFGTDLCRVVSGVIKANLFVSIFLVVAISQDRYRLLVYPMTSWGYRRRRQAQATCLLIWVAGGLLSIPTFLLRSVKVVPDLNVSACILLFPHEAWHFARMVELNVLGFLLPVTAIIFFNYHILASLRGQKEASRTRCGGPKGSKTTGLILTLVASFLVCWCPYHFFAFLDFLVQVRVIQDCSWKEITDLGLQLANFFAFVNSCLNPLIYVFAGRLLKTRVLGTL
Procedure, shortened: as §1

| inhibition at 10 µM [1] | inhibition at 10 µM [2] | Structure (SMILES) |
| --- | --- | --- |
| 100% | 105% | Cc1cc(N2CCC(N(C)C(=O)c3ccc4c(c3)[C@H](NC(=O)c3ccc(F)cc3Cl)CC4)CC2)nc(C)n1 [Example H-165, (3R)-3-[(2-Chloro-4-fluoro-benzoyl)amino]-N-[1-(2,6-dimethyl-pyrimidin-4-yl)-piperidin-4-yl]-N-methyl-2,3-dihydro-1H-indene-5-carboxylic acid amide] |
| 100% | 55% | Cc1cc(N2CCC(N(C)C(=O)c3ccc4c(c3)[C@H](N(C(=O)c3ccccc3Cl)C(C)C)CC4)CC2)nc(C(C)C)n1 [Example H-166, (3R)-3-[(2-Chloro-benzoyl)-isopropyl-amino]-N-[1-(2-isopropyl-6-methyl-pyrimidin-4-yl)-piperidin-4-yl]-N-methyl-2,3-dihydro-1H-indene-5-carboxylic acid amide] |
| 100% | 109% | CCN(C(=O)c1ccc(F)cc1Cl)[C@@H]1CCc2ccc(C(=O)N(C)C3CCN(c4cc(C)nc(C)n4)CC3)cc21 [Example H-167, (3R)-3-[(2-Chloro-4-fluoro-benzoyl)-ethyl-amino]-N-[1-(2,6-dimethyl-pyrimidin-4-yl)-piperidin-4-yl]-N-methyl-2,3-dihydro-1H-indene-5-carboxylic acid amide] |
| 100% | 104% | Cc1cc(N2CCC(N(C)C(=O)c3ccc4c(c3)[C@H](N(C)C(=O)c3ccc(F)cc3Cl)CC4)CC2)nc(C)n1 [Example H-168, (3R)-3-[(2-Chloro-4-fluoro-benzoyl)-methyl-amino]-N-[1-(2,6-dimethyl-pyrimidin-4-yl)-piperidin-4-yl]-N-methyl-2,3-dihydro-1H-indene-5-carboxylic acid amide] |
| 100% | 106% | Cc1cc(N2CCC(N(C)C(=O)c3ccc4c(c3)[C@H](N(C)C(=O)c3ccccc3C)CC4)CC2)nc(C)n1 [Example H-169, (3R)-N-[1-(2,6-Dimethyl-pyrimidin-4-yl)-piperidin-4-yl]-N-methyl-3-[methyl-(2-methyl-benzoyl)-amino]-2,3-dihydro-1H-indene-5-carboxylic acid amide] |
| 100% | 106% | CCN(C(=O)c1ccccc1C)[C@@H]1CCc2ccc(C(=O)N(C)C3CCN(c4cc(C)nc(C)n4)CC3)cc21 [Example H-170, (3R)-N-[1-(2,6-Dimethyl-pyrimidin-4-yl)-piperidin-4-yl]-3-[ethyl-(2-methyl-benzoyl)-amino]-N-methyl-2,3-dihydro-1H-indene-5-carboxylic acid amide] |
| 100% | 104% | Cc1cc(N2CCC(N(C)C(=O)c3ccc4c(c3)[C@H](N(C)C(=O)c3cccnc3C(F)(F)F)CC4)CC2)nc(C)n1 [Example H-171, N-[(1R)-6-[[1-(2,6-Dimethyl-pyrimidin-4-yl)-piperidin-4-yl]-methyl-carbamoyl]-2,3-dihydro-1H-inden-1-yl]-N-methyl-2-(trifluoromethyl)pyridine-3-carboxylic acid amide] |
| 100% | 101% | CC(C)N(C(=O)c1ccc2c(c1)[C@H](NC(=O)c1ccccc1Cl)CC2)C1CCN(c2ccncc2)CC1 [Example H-178, (3R)-3-[(2-Chloro-benzoyl)amino]-N-isopropyl-N-(1-pyridin-4-yl-piperidin-4-yl)-2,3-dihydro-1H-indene-5-carboxylic acid amide] |
| 94% | 100% | Cc1cc(N2CCC(N(C)C(=O)c3ccc4c(c3)[C@H](NC(=O)C(C)(C)F)CC4)CC2)ccn1 [Example H-179, (3R)-3-[(2-Fluoro-2-methyl-propanoyl)amino]-N-methyl-N-[1-(2-methyl-pyridin-4-yl)-piperidin-4-yl]-2,3-dihydro-1H-indene-5-carboxylic acid amide] |
| 89% | 104% | CN(C(=O)c1ccc2c(c1)[C@H](NC(=O)c1ccccc1Cl)CC2)C1CCN(c2nccn2C)CC1 [Example H-180, (3R)-3-[(2-Chloro-benzoyl)amino]-N-methyl-N-[1-(1-methyl-1H-imidazol-2-yl)-piperidin-4-yl]-2,3-dihydro-1H-indene-5-carboxylic acid amide] |
| 77% | 100% | Cc1cncc(N2CCC(N(C)C(=O)c3ccc4c(c3)[C@H](NC(=O)c3ccccc3Cl)CC4)CC2)n1 [Example H-181, (3R)-3-[(2-Chloro-benzoyl)amino]-N-methyl-N-[1-(6-methyl-pyrazin-2-yl)-piperidin-4-yl]-2,3-dihydro-1H-indene-5-carboxylic acid amide] |
| 15% | 59% | CN(C(=O)c1ccc2c(c1)[C@H](NC(=O)c1ccccc1Cl)CC2)C1CCN(c2ccncc2)C(=O)C1 (stereo partly drawn) [Example H-182, (3R)-3-[(2-Chloro-benzoyl)amino]-N-methyl-N-(2-oxo-1-pyridin-4-yl-piperidin-4-yl)-2,3-dihydro-1H-indene-5-carboxylic acid amide] |
| 93% | 101% | CN(C(=O)c1ccc2c(c1)[C@H](NC(=O)c1ccccc1Cl)CC2)C1CCN(c2ccncc2C(F)(F)F)CC1 [Example H-183, (3R)-3-[(2-Chloro-benzoyl)amino]-N-methyl-N-[1-[3-(trifluoromethyl)-pyridin-4-yl]-piperidin-4-yl]-2,3-dihydro-1H-indene-5-carboxylic acid amide] |
| 72% | 105% | CN(C)c1cc(C2CCC(N(C)C(=O)c3ccc4c(c3)[C@H](NC(=O)c3ccccc3Cl)CC4)CC2)ccn1 (stereo partly drawn) [Example H-184, (3R)-3-[(2-Chloro-benzoyl)amino]-N-[4-(2-dimethylamino-pyridin-4-yl)-cyclohexyl]-N-methyl-2,3-dihydro-1H-indene-5-carboxylic acid amide] |
| 100% | 105% | CN(C)c1cc(N2CCC(N(C)C(=O)c3ccc4c(c3)[C@H](N(C)C(=O)CCC3CCCC3)CC4)CC2)ccn1 [Example H-185, (3R)-3-(3-Cyclopentyl-propanoyl-methyl-amino)-N-[1-(2-dimethylamino-pyridin-4-yl)-piperidin-4-yl]-N-methyl-2,3-dihydro-1H-indene-5-carboxylic acid amide] |
| 99% | 103% | CN(C)c1nccc(N2CCC(N(C)C(=O)c3ccc4c(c3)[C@H](N(C)C(=O)CCC3CCCC3)CC4)CC2)n1 [Example H-186, (3R)-3-(3-Cyclopentyl-propanoyl-methyl-amino)-N-[1-(2-dimethylamino-pyrimidin-4-yl)-piperidin-4-yl]-N-methyl-2,3-dihydro-1H-indene-5-carboxylic acid amide] |
